Columns and labels:
Musca domestica = assay: Housefly contact test, mortality after 48 hours; format: in vivo, Housefly Musca domestica; conditions: μg of the test compound per 25 female flies
Experimental: (§1) The compounds in Table I above were tested for insecticidal activity using the following testing procedures. LC50 values, based on the results of these tests and calculated according to dosage-mortality curves, are expressed in Table II.
The test compound was diluted in acetone and aliquots pipetted onto the bottom of aluminum dishes. To ensure even spreading of the chemical on the bottom of the dishes, 1 ml of acetone containing 0.01% peanut oil was also added to each dish. After all solvents had evaporated, the dishes were placed in circular cardboard cages containing 25 female houseflies, 1-2 days old. The cages were covered on the bottom with cellophane and on the top with tulle netting, and each contained a sugar-water saturated cotton plug for maintenance of the flies. Mortality was recorded after 48 hours. Test levels ranged from 100 μg/25 female houseflies downward. The LC-50 value is expressed below in Table II under the heading "HF", in terms of μg of the test compound per 25 female flies.

Aphis fabae = assay: Black bean aphid spray test on nasturtium plants, mortality after 48 hours; format: in vivo, Black Bean Aphid Aphis fabae (Scop.); conditions: mixed ages, percent of test compound in sprayed solution
Experimental: as §1
Black Bean Aphid Aphis fabae (Scop.)
Nasturtium plants (Tropaeolum sp.) approximately 5 cm tall, were transplanted into sandy loam soil in small cups and infested with 25-50 black bean aphids of mixed ages. Twenty-four hours later they were sprayed to the point of runoff with 50--50 acetone-water solutions of the test compound. Treated plants were held in the greenhouse and mortality was recorded after 48 hours. Test concentrations ranged from 0.05% downward. The LC-50 value is expressed below in Table II under the heading "BA" in terms of percent of the test compound in the sprayed solution.

Tetranychus urticae = assay: Two-spotted mite acaricidal test on pinto bean plants; format: in vivo, two-spotted mite Tetranychus urticae (Koch); conditions: percent concentration in solution, 5-7 days; for LC50 2-SM A: adults; for LC50 2-SM E: eggs
Text: Acaricidal Evaluation Test
The two-spotted mite (2SM) [Tetranychus urticae (Koch)]was employed in tests for miticides. The test procedure was as follows:
Pinto bean plants (Phaseolus sp.) approximately 10 cm tall, were transplanted into sandy loam soil in small cups and thoroughly infested with two-spotted mites of mixed ages and sexes. Twenty-four hours later the infested plants were inverted and dipped for 2-3 seconds in 50--50 acetone-water solutions of the test compound. Treated plants were held in the greenhouse, and 5-7 days later mortality was determined for both adult mites and the nymphs hatching from eggs which were on the plants at the time of treatment. Test concentrations ranged from 0.05% downward. The LC-50 value is expressed below in Table II under the headings "2SM-A" (i.e., adults) and "2SM-E" (i.e. eggs) in terms of percent concentration of the test compound in the solution.

Heliothis virescens = assay: Tobacco budworm egg dip test; format: in vivo, Tobacco Budworm Heliothis virescens (Fabricius); conditions: 2-day old eggs (TBW-E), percent of test compound in solution
Experimental: as §1
Tobacco Budworm Heliothis virescens (Fabricius)
Eggs: Paper towel patches of 2-day old eggs of the tobacco budworm were dipped in acetone solutions of the test compound and placed in petri dishes containing a portion of larval rearing medium. Treated eggs were maintained at 78° F. and mortality was recorded after all control eggs had hatched and the young larvae were feeding on the media. Test concentrations ranged from 0.1% downward. The LC-50 value is expressed below in Table II under the heading "TBW-E" in terms of percent of the test compound in the solution.

Trichoplusia ni = assay: Cabbage looper larvae leaf-dip test; format: in vivo, Cabbage Looper Trichoplusia ni (Hubner); conditions: second instar larvae, percent of test compound in solution, 3-5 days
Experimental: as §1
Cabbage Looper Trichoplusia ni (Hubner)
The test compound was diluted in a 50--50 acetone-water solution Cotyledons of hyzini squash (Calabacita abobrinha), approximately 1×1.5 inches, were immersed in the test solutions for 2-3 seconds and placed on a wire screen to dry. The dried leaves were p1aced in petri dishes containing a moistened piece of filter paper and infested with 5 secondinstar cabbage looper larvae. The dishes were placed in a high humidity chamber. Mortality of the larvae was recorded 3-5 days later. Test concentrations ranged from 0.1% downward. The LC-50 value is expressed below in Table II under the heading "CL" in terms of percent of the test compound in solution.

[1] = system: Diabrotica undecimpunctata undecimpunctata; assay: Western spotted cucumber beetle larvae soil test; format: in vivo; conditions: Diabrotica eggs/larvae; ppm of the test compound in the soil
Experimental: as §1
Western Spotted Cucumber Beetle Larvae Diabrotica undecimpunctata undecimpunctata (Mannherheim)
Ten grams of moist potting soil was placed in a plastic cup. The test compound was dissolved in acetone. A 0.05 ml aliquot of the test sample, diluted to the desired concentration, was added to the soil. The cup was capped and the soil was mixed on a vortex mixer for approximately 15 seconds. An indentation was made on the surface of the soil and approximately 50 Diabrotica eggs were added. The eggs were covered with soil and maintained at room temperature (approximately 70° F. or 21° C.). Four days later a section of Romaine lettuce (Latuca sativa) leaf was placed in the treated cups. One week later the cups were examined for live larvae. Test concentrations ranged from 25 ppm downward. The LC-50 value is expressed below in Table II under the heading "Diabrotica" in terms of ppm of the test compound in the soil.

Compound | LC50 HF (Musca domestica) | LC50 BA (Aphis fabae) | LC50 2-SM A (Tetranychus urticae) | LC50 2-SM E (Tetranychus urticae) | LC50 TBW (Heliothis virescens) | LC50 CL (Trichoplusia ni) | LC50 Diabrotica [1]
CC(C)C(=Nc1ccc(Cl)nc1)OCc1cccc(Oc2ccccc2)c1 [Compound 1, N-(6-Chloro-3-pyridyl)-0-(3-phenoxybenzyl)isobutyrylimidate] | 5.5 µg | 0.001% | > 0.05% | > 0.05% | 0.04% | 0.005% | > 25 ppm
CC(C)C(=Nc1ccc(Cl)nc1Cl)OCc1cccc(Oc2ccccc2)c1 [Compound 2] | 18 µg | 0.003% | > 0.05% | > 0.05% | 0.075% | 0.0027% | > 25 ppm
Cc1ccc(N=C(OCc2cccc(Oc3ccccc3)c2)C(C)C)cn1 [Compound 10] | 25 µg | 0.05% | > 0.05% | > 0.05% | > 0.1% | > 0.1% | 
CC(C)C(=Nc1ccc(Br)nc1)OCc1cccc(Oc2ccccc2)c1 [Compound 11] | 7 µg | 0.01% | > 0.05% | > 0.05% | > 0.1% | 0.01% | 
CC(C)(Cl)C(=Nc1ccc(Br)nc1)OCc1cccc(Oc2ccccc2)c1 [Compound 12] | 12 µg | 0.05% | > 0.05% | > 0.05% | > 0.1% | 0.02% | 
CC(C)C(=Nc1cncc(Br)c1)OCc1cccc(Oc2ccccc2)c1 [Compound 13] | 7 µg | > 0.05% |  |  | > 0.1% | 0.015% | 
CC(C)C(=Nc1ccc2ncccc2c1)OCc1cccc(Oc2ccccc2)c1 [Compound 16] | 59 µg |  | > 0.05% | > 0.05% | > 0.1% | 0.025% | > 25 ppm
CC(C)C(=Nc1cnc2ccccc2c1)OCc1cccc(Oc2ccccc2)c1 [Compound 17] | 36 µg |  | > 0.05% | > 0.05% | > 0.1% | 0.05% | > 25 ppm
CC(C)C(=Nc1ccc2ncoc2c1)OCc1cccc(Oc2ccccc2)c1 [Compound 18] | 8 µg |  | > 0.05% | > 0.05% | > 0.1% | 0.009% | > 25 ppm
CC(C)C(=Nc1ccc2ocnc2c1)OCc1cccc(Oc2ccccc2)c1 [Compound 19] | 10 µg |  | > 0.05% | > 0.05% | > 0.1% | 0.04% | > 25 ppm
CC(C)C(=Nc1ccc2ncsc2c1)OCc1cccc(Oc2ccccc2)c1 [Compound 20] | 6 µg |  |  |  |  | 0.009% | 
CC(C)C(=Nc1ccc2nc(C(C)C)sc2c1)OCc1cccc(Oc2ccccc2)c1 [Compound 21] | > 100 µg |  | > 0.05% | > 0.05% | > 0.1% | 0.05% | > 25 ppm
CC(C)C(=Nc1ccc(Cl)nc1)OCc1cccc(Oc2ccc(F)cc2)c1 [Compound 22] | 9 µg |  | > 0.05% | > 0.05% | 0.05% | 0.001% | > 25 ppm
CC(C)C(=Nc1ccc(Cl)nc1)NCc1cccc(Oc2ccccc2)c1 [Compound 23] | > 100 µg |  | > 0.05% | > 0.05% | > 0.1% | 0.1% | > 25 ppm
Cc1nc2cc(N=C(OCc3cccc(Oc4ccccc4)c3)C(C)C)ccc2o1 [Compound 24] | > 100 µg |  | > 0.05% | > 0.05% | > 0.1% | 0.0075% | > 25 ppm
Cc1nc2ccc(N=C(OCc3cccc(Oc4ccccc4)c3)C(C)C)cc2o1 [Compound 25] | 38 µg |  | > 0.05% | > 0.05% | > 0.1% | 0.0075% | > 25 ppm
CCCCc1nc2ccc(N=C(OCc3cccc(Oc4ccccc4)c3)C(C)C)cc2o1 [Compound 26] | > 100 µg | 0.05% | > 0.05% | > 0.05% | > 0.1% | 0.004% | 
CC(C)C(=Nc1ccc2nc(C(C)C)oc2c1)OCc1cccc(Oc2ccccc2)c1 [Compound 27] | > 100 µg | > 0.05% | > 0.05% | > 0.05% | > 0.1% | 0.0035% | 
CC(C)C(=Nc1ccc(Cl)nc1)OCc1ccc(F)c(Oc2ccc(F)cc2)c1 [Compound 31] | 7.5 µg |  | > 0.05% | > 0.05% | 0.45% | 0.0016% | > 25 ppm
CC(C)C(=Nc1ccc(Cl)nc1)OCc1ccc(F)c(Oc2ccc(Cl)cc2)c1 [Compound 32] | 22 µg |  | > 0.05% | 0.05% | 0.03% | 0.00075% | > 25 ppm
CC(C)C(=Nc1cc(C(F)(F)F)ccn1)OCc1cccc(Oc2ccccc2)c1 [Compound 34] | > 100 µg |  | > 0.05% | > 0.05% | > 0.1% | 0.018% | > 25 ppm
CC(C)C(=Nc1cncc(C(F)(F)F)c1)OCc1cccc(Oc2ccc(F)cc2)c1 [Compound 35] | 23 µg |  | > 0.05% | > 0.05% | 0.1% | 0.001% | > 25 ppm
CC(C)C(=Nc1cc(C(F)(F)F)ccn1)OCc1cccc(Oc2ccc(F)cc2)c1 [Compound 36] | > 100 µg |  | > 0.05% | > 0.05% | > 0.1% | 0.015% | > 25 ppm
CCOc1ccc(N=C(OCc2cccc(Oc3ccccc3)c2)C(C)C)cn1 [Compound 41] | < 100 µg | > 0.05% | > 0.05% | > 0.05% | > 0.1% |  | > 25 ppm
